ChEMBL document CHEMBL3588835, “Discovery of a new chemical series of BRD4(1) inhibitors using protein-ligand docking and structure-guided design” (Bioorg Med Chem Lett, 2015)

Key:
[1] = target: T1, Bromodomain-containing protein 2 (Homo sapiens, UniProt P25440); assay: Inhibition of HTRF binding to N-terminal His-tagged BRD2(2) (unknown origin) at 50 uM using biotinylated tetra-acetylated histone H4 peptide and Cryptate-labeled streptavidin incubated for 2 hrs by TR-FRET assay
Target sequence in this assay (P25440 whole entry, looked up): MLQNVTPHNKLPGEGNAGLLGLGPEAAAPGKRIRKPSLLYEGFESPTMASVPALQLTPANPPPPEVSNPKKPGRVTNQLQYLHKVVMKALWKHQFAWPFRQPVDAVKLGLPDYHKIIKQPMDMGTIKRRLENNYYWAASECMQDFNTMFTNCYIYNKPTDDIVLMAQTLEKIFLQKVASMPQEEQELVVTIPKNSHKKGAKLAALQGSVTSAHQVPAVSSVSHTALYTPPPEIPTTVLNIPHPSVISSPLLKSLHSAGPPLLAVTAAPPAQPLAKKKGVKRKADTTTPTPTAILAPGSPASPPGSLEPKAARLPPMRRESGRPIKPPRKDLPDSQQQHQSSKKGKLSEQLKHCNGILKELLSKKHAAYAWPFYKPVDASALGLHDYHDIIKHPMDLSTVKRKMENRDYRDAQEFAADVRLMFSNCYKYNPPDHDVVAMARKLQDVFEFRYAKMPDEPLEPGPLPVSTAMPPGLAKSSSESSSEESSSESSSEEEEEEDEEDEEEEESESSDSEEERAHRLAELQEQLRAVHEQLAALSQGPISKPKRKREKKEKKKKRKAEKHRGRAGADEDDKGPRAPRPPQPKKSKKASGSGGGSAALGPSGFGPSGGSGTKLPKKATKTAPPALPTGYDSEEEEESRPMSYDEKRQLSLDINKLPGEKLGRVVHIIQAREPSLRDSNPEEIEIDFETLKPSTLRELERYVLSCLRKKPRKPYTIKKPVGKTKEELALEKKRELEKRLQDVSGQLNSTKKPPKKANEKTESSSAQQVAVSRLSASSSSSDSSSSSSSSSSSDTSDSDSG

[2] = target: T2, Bromodomain-containing protein 4 (Homo sapiens, UniProt O60885); assay: Inhibition of HTRF binding to N-terminal His-tagged BRD4(1) (unknown origin) at 50 uM using biotinylated tetra-acetylated histone H4 peptide and Cryptate-labeled streptavidin incubated for 2 hrs by TR-FRET assay
[3] = target: T2, Bromodomain-containing protein 4; assay: Inhibition of HTRF binding to N-terminal His-tagged BRD4(1) (unknown origin) using biotinylated tetra-acetylated histone H4 peptide and Cryptate-labeled streptavidin incubated for 2 hrs by TR-FRET assay
[4] = target: T1, Bromodomain-containing protein 2; assay: Inhibition of HTRF binding to N-terminal His-tagged BRD2(2) (unknown origin) using biotinylated tetra-acetylated histone H4 peptide and Cryptate-labeled streptavidin incubated for 2 hrs by TR-FRET assay
Target sequence in this assay (P25440 whole entry): as the sequence (P25440 whole entry, looked up) above

Row | inhibition [1] | inhibition [2] | IC50 [3] | IC50 [4] | Structure (SMILES)
1 | 0% | 0% |  |  | CS(=O)(=O)N(CC(=O)N1CC(=O)Nc2ccccc21)c1ccccc1F
2 | > 50% | > 25% |  |  | O=C1CN(C(=O)Cc2cccc3ccccc23)c2ccccc2N1
3 | 25% | 0% |  |  | O=C1CN(C(=O)CCc2ccccc2Cl)c2ccccc2N1
4 | > 50% | > 25% |  |  | O=C1CN(C(=O)c2cccc(C(F)(F)F)c2)c2ccccc2N1
5 | 25% | 0% |  |  | O=C1CN(C(=O)c2cccc(F)c2)c2ccccc2N1
6 | 0% | 0% |  |  | CCc1ccc(CC(=O)N2CC(=O)Nc3ccccc32)cc1
7 | 0% | 0% |  |  | O=C1CN(C(=O)Cc2cccs2)c2ccccc2N1
8 | 25% | 0% |  |  | O=C1CN(C(=O)c2sc3ccccc3c2Cl)c2ccccc2N1
9 | 0% | 0% |  |  | CSc1ccc(CC(=O)N2CC(=O)Nc3ccccc32)cc1
10 | 0% | 0% |  |  | Cc1ccc(CC(=O)N2CC(=O)Nc3ccccc32)cc1
11 | 25% | 0% |  |  | Cc1cccc(OCCC(=O)N2CC(=O)Nc3ccccc32)c1
12 | > 50% | > 25% |  |  | CSc1ccccc1C(=O)N1CC(=O)Nc2ccccc21
13 | 25% | 0% |  |  | O=C1CN(C(=O)Cc2ccc(Cl)cc2)c2ccccc2N1
14 | 25% | 0% |  |  | CC(C)Sc1ccccc1C(=O)N1CC(=O)Nc2ccccc21
15 | 0% | 0% |  |  | CSc1ccc(Cl)c(C(=O)N2CC(=O)Nc3ccccc32)c1
16 | 25% | 0% |  |  | COc1cccc(OCC(=O)N2CC(=O)Nc3ccccc32)c1

Continued, compound first:

Row | Structure (SMILES) | inhibition [1] | inhibition [2] | IC50 [3] | IC50 [4]
17 | COc1ccc(/C=C(/C(=O)N2CC(=O)Nc3ccccc32)c2ccc(OC)cc2)cc1 |  |  | 16 µM | 13 µM
18 | COc1ccc(/C=C(/C(=O)N2CC(=O)Nc3ccccc32)c2ccc(OC)c(OC)c2)cc1 |  |  | 18 µM | 26 µM
19 | COc1ccc(CC(=O)N2CC(=O)Nc3ccccc32)cc1OC | 25% | 0% |  | 
20 | O=C1CN(C(=O)c2cncc(-c3ccc(Cl)cc3)c2)c2ccccc2N1 |  |  | 49 µM | 
21 | COc1ccc(/C=C(/C(=O)Nc2c(C)noc2C)c2ccc(OC)cc2)cc1 |  |  | 44 µM | 12 µM
22 | COc1cc(C(=O)N2CC(=O)Nc3ccccc32)cc(-c2ccccc2)c1 |  |  | 13 µM | 
23 | COc1ccc(/C=C(/C(=O)N2CC(=O)Nc3cc(OC)ccc32)c2ccccc2)cc1 |  |  | 34 µM | > 50 µM
24 | N#Cc1cccc(-c2cncc(C(=O)N3CC(=O)Nc4ccccc43)c2)c1 |  |  | 44 µM | 12 µM
25 | O=C1CN(C(=O)c2cncc(-c3cccc(O)c3)c2)c2ccccc2N1 |  |  | 29 µM | 
26 | COc1cccc(-c2cncc(C(=O)N3CC(=O)Nc4ccccc43)c2)c1 |  |  | 25 µM | 
27 | O=C1CN(C(=O)c2cncc(-c3ccc(F)cc3)c2)c2ccccc2N1 |  |  | 47 µM | 
28 | O=C1CN(C(=O)c2cncc(-c3ccccc3)c2)c2ccccc2N1 |  |  | 26 µM | 20 µM
29 | COc1ccc(/C=C(/C(=O)N2CC(=O)Nc3cc(OC)ccc32)c2ccc(OC)cc2)cc1 |  |  | 13 µM | 13 µM
30 | O=C1CN(C(=O)c2cc(-c3cccc(Cl)c3)[nH]n2)c2ccccc2N1 | 0% | 0% |  | 
31 | CCn1ccc(C(=O)N2CC(=O)Nc3ccccc32)n1 | > 50% | > 25% |  | 
32 | CC(=O)Nc1cccc(/C=C(/C(=O)N2CC(=O)Nc3ccccc32)c2ccccc2)c1 |  |  | 40 µM | 10 µM
33 | COc1ccc(/C=C(/C(=O)N2CC(=O)Nc3ccccc32)c2cccs2)cc1 |  |  | 13 µM | 23 µM
34 | COc1ccc(/C=C(/C(=O)N2CC(=O)Nc3ccccc32)c2ccc(C)c(C)c2)cc1 |  |  | 14 µM | > 50 µM
35 | COc1cc(NCc2ccccc2)cc(C(=O)N2CC(=O)Nc3ccccc32)c1 |  |  | > 50 µM | 
36 | O=C1CN(C(=O)c2cc(O)cc(-c3ccccc3)c2)c2ccccc2N1 |  |  | 9 µM | 
37 | COc1ccc(/C=C(/C(=O)N2CC(=O)Nc3ccccc32)c2ccc(NC(C)=O)cc2)cc1 |  |  | 13 µM | 24 µM
38 | Cc1ccc(-c2cc(C(=O)N3CC(=O)Nc4ccccc43)[nH]n2)cc1 | 0% | 0% |  | 
39 | NC(=O)c1ccc(/C=C(/C(=O)N2CC(=O)Nc3ccccc32)c2ccccc2)cc1 |  |  | 46 µM | 49 µM
40 | COC(=O)c1ccc(/C=C(/C(=O)N2CC(=O)Nc3ccccc32)c2ccccc2)cc1 |  |  | 25 µM | 25 µM
41 | COc1ccc(/C=C(/C(=O)N2CC(=O)Nc3ccccc32)c2ccc(OC)cc2OC)cc1 |  |  | > 50 µM | > 50 µM
42 | COc1ccc(/C=C(/C(=O)N2CC(=O)Nc3ccccc32)c2ccccc2)cc1 | > 50% | > 25% | 26 µM | 22 µM
43 | COc1ccc(/C(=C\c2ccncc2)C(=O)N2CC(=O)Nc3ccccc32)cc1 |  |  | 25 µM | 5 µM
44 | O=C1CN(C(=O)C(c2ccccc2)c2ccccc2)c2ccccc2N1 | > 50% | > 25% |  | 
